The text below walks through data of patent US10420758B2, “Indolinyl-sulfonamide inhibitors of tankyrase and methods of use thereof” (The Board of Regents of the University of Texas System, priority 2015, dated 2019).

The target of one data set is T1, telomerase (Homo sapiens, UniProt O14746).
T1 construct: endogenous in cells; host or cells: HeLa
The experiment in a line: Digital droplet telomerase extension (ddTRAP) assay. In kind it is cell-based. As to conditions: HeLa cells treated for 24 hrs, FIG. 4F. An excerpt:
FIGS. 4A-4F show Tnks inhibitors induce telomeric stress in human cells independently of Wnt/β-catenin pathway inhibition. (FIG. 4A) Porcn inhibitors afford a Tnks-independent approach to disrupting Wnt/β-catenin signaling. Chemicals targeting the Wnt acyltransferase Porcn abrogate Wnt palmitoylation which in turn results in loss of activity of the Frizzled (Fzd) family of Wnt receptors. Fzd receptors directly induce activation of the cytoplasmic signaling molecule Dishevelled (Dvl) in a ligand-dependent manner, which in turn results in activation of β-catenin and transcription mediated by the TCF family of DNA binding proteins. […] The appearance of co-localized Terf2 and pH2A.X (an indicator of DNA damage at the telomere ends; Telomere Induced Foci or TIFs) was scored using indirect immunofluorescence in Hela cells (expressing wild-type Apc protein). (FIG. 4C) Quantification of results represented in “B”. Cells with >5 TIFs were scored as positive for telomeric damage (left bars). […]
The ddTRAP assay was performed as previously described (Ludlow, et al., 2014). […] Fluorescence was quantitated using a QX200 droplet reader (Bio-Rad) in the 6-Fam channel. Thresholds for quantitation were determined by comparison to a telomerase negative fibroblast cell line and no cell input negative control samples and untreated Hela cell positive control samples.

The subject of another data set is zebrafish. The data set can be described thus: Zebrafish caudal fin regeneration after chemical removal. To be noted: resected caudal fins, water containing compound for 7 d, then removal. In kind it is in vivo. The source says:
Achieving transient repression of pathological Wnt response without incurring permanent damage to normal stem cell function is a key anticancer therapeutic goal.

The target of a further data set is PARP6 (Homo sapiens, UniProt Q2NL67). The data set can be described thus: PARP profiling, parsylation of immobilized histone. The format is biochemical. To be noted: IWR compounds 10 μM. Here is the method:
(§1) Performed by BPS Bioscience Inc., San Diego by following the BPS PARP or TNKS assay kit protocols. The enzymatic reactions were conducted in duplicate at room temperature for 1 hr in a 96 well plate coated with histone substrate. […] of reaction buffer (Tris.HCl, pH 8.0) contains NAD^+, biotinylated NAD^+, activated DNA, recombinant PARP enzyme and 10 μM of the test compound. […] After enzymatic reactions, 50 μL of Streptavidin-horseradish peroxidase was added to each well and the plate was incubated at room temperature for an additional 30 min. 100 μL of developer reagents were added to wells and luminescence was measured using a BioTek Synergy™ 2 microplate reader.

The next data set addresses PARP1 (Homo sapiens, UniProt P09874). The data set can be described thus: PARP profiling, parsylation of immobilized histone. The format is biochemical. As to conditions: IWR compounds 10 μM. Here is the method: as §1
Data set [1] has as its system Tnks 1 and 2, Axin, β-catenin in SW480 cells. The data set can be described thus: Western blot of Tnks, Axin and β-catenin levels in SW480 cells. In kind it is cell-based. As to conditions: SW480 cells (truncated Apc), FIG. 1A. A general note: In western blotting, separated proteins are transferred to a membrane and probed.
Experimental: (FIG. 1A) Biochemical markers of Tnks inhibition associated with the Wnt/β-catenin pathway. […] (FIG. 1B) A biochemical screen to identify additional Tnks inhibitors from the IWR collection of Wnt pathway inhibitors. The effects of the IWR compounds on Tnks 1 and 2, β-catenin, and acetylated tubulin (Ac-Tub; loading control) expression levels were determined in SW480 cells by Western blot analysis.
For Western blot analysis cell lysates were generated with either PBS-NP40 buffer [phosphate-buffered saline (PBS)/1% NP40], or Tris-Triton X-100 buffer [50 mM Tris (pH 8), 200 mM NaCl, 1 mM EDTA, 1% Triton X-100, 10% glycerol, 1 mM DTT, 0.5 mM deoxycholate]. Both buffers were supplemented with protease inhibitor cocktail (Sigma). […] The lysates were cleared by centrifugation at 15,000 rpm for 10 min.
For a further data set, the system named is Tnks enzymes. As to conditions: cited from earlier work.
A further data set deals with Axin2 in DLD-1 cells. The experiment in a line: Expression of Axin2 in DLD-1 cells. In kind it is cell-based. To be noted: exposure for 2 h. The source says: Aberrant transcriptional induction of Wnt/β-catenin target genes is typically observed in CRC cells that harbor loss-of-function mutations in the APC tumor suppressor. […] See Chen et al. (2007), which is incorporated herein by reference.

In data set [2] the test system is panel of recombinant PARP proteins. The experiment in a line: Overall specificity in panel of recombinant PARP proteins. In kind it is biochemical. As to conditions: 10 μM, panel covers 70% of the protein family. Here is the method:
as §1
The higher level of conservation between the NI-binding pocket in PARPs as compared to the AD-binding pocket likely imposes greater challenges to achieving specificity with NI-binding pocket inhibitors (Wahlberg, et al., 2012). […] At the same time, the discovery of structurally distinct chemicals both capable of binding the AD-binding pocket in a similar fashion (IWR-1 and IWR-8) afforded an opportunity to evaluate the strength of this hypothesis.

Data set [3] concerns β-catenin activity in DLD-1 cells. The experiment in a line: Wnt/β-catenin specific luciferase reporter (SuperTopFlash) in DLD-1 cells. In kind it is cell-based. To be noted: FIG. 2B. Here is the method: Representative IWRs from each chemotype were evaluated for their ability to inhibit purified recombinant Tnks1 protein (Tnks1 […] protein). Parsylation of immobilized histone protein was determined by colorimetric detection of incorporated biotinylated NAD+ in 96 well format.
Luciferase Reporter Assays.
Assays were executed as described using a Dual Luciferase kit (Promega), and SuperTopFlash and control SV40-driven Renilla luciferase reporters (SV40-Ren luc) (Chen, et al., 2009).
(Reporter assays use an easily measured gene product as a stand-in for the process of interest.)

The target in the next data set is TNKS1 (Homo sapiens, UniProt O95271). The data set can be described thus: PARP profiling, parsylation of immobilized histone. As to conditions: IWR compounds 10 μM. The format is biochemical. Here is the method: as §1
Chain of TNKS1 (O95271 whole entry): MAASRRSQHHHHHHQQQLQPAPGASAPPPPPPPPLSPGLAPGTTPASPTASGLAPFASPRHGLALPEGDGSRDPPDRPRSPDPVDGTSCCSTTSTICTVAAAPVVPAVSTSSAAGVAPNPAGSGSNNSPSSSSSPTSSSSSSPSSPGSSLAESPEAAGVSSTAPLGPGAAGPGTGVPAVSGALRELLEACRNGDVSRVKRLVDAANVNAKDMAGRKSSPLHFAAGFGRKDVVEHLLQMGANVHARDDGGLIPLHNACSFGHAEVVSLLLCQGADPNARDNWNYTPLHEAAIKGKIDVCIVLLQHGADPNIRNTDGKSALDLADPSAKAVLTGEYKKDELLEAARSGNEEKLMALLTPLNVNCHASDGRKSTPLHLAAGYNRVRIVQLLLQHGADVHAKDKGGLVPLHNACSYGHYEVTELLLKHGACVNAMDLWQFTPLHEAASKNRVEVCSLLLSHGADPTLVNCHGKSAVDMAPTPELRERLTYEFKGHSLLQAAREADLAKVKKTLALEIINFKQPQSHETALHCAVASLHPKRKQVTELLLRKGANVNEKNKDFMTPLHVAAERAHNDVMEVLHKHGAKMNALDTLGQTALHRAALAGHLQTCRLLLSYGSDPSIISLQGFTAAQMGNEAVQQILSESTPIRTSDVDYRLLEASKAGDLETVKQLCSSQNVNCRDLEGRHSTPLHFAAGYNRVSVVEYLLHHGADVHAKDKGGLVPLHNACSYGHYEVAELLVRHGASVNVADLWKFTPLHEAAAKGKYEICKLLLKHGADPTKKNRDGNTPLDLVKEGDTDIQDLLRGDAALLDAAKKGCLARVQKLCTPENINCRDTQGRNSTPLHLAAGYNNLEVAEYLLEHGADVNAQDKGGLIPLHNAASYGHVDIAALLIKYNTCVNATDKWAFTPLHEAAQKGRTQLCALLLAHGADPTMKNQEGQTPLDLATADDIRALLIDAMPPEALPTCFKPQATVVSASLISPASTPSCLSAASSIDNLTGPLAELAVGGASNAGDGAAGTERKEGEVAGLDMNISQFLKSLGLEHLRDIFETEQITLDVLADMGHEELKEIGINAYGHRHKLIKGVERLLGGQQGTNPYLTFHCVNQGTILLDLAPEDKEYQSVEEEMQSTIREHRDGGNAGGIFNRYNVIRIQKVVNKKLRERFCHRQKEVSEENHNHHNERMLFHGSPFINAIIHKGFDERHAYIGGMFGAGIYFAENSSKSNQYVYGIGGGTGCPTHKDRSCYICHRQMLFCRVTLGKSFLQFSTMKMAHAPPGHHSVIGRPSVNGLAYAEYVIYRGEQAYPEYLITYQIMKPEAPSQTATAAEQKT
A further data set concerns the target TNKS2 (Homo sapiens, UniProt Q9H2K2). The data set can be described thus: PARP profiling, parsylation of immobilized histone. In kind it is biochemical. As to conditions: IWR compounds 10 μM. Here is the method:
as §1

The target of data set [4] is T2, purified Tnks1 SAM-PARP protein (Homo sapiens, UniProt O95271).
T2 construct: purified Tnks1 SAM-PARP protein; provided by Herwig Schüler (gift, not a vendor)
T2 sequence (O95271 1030-1317 limits assumed): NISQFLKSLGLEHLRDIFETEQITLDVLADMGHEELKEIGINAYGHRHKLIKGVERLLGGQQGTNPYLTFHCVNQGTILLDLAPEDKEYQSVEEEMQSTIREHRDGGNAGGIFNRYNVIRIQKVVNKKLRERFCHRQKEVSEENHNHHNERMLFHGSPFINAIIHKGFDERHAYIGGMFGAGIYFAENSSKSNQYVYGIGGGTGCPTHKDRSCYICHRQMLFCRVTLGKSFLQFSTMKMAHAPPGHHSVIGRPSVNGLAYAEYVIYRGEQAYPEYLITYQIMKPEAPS
The experiment in a line: In vitro Tnks activity assay, histone parsylation (HT Universal Color PARP Assay Kit). The format is biochemical. As to conditions: parsylation of immobilized histone, colorimetric, FIG. 2A.

A further data set deals with SW403 cells. The data set can be described thus: Cell growth of SW403 cells. In kind it is cell-based. To be noted: FIG. 2C.

Chain of PARP6 (Q2NL67 whole entry): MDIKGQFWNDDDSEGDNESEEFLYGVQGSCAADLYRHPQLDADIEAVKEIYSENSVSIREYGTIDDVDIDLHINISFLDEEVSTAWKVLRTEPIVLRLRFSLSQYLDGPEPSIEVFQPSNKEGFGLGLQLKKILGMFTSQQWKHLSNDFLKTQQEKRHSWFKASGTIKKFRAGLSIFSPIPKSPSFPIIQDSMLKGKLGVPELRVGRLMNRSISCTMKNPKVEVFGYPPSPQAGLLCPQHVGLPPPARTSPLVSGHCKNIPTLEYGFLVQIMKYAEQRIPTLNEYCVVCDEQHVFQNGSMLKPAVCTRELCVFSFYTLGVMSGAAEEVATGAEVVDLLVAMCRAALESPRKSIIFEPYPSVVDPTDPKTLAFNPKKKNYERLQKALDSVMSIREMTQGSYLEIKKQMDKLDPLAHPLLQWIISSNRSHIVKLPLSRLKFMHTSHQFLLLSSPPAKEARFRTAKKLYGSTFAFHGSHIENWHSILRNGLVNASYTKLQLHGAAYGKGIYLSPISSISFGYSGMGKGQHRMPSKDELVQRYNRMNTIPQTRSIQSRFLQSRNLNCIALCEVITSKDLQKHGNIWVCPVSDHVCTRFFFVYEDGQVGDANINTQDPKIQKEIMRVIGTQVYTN
Chain of PARP1 (P09874 whole entry, the tested form may be a part): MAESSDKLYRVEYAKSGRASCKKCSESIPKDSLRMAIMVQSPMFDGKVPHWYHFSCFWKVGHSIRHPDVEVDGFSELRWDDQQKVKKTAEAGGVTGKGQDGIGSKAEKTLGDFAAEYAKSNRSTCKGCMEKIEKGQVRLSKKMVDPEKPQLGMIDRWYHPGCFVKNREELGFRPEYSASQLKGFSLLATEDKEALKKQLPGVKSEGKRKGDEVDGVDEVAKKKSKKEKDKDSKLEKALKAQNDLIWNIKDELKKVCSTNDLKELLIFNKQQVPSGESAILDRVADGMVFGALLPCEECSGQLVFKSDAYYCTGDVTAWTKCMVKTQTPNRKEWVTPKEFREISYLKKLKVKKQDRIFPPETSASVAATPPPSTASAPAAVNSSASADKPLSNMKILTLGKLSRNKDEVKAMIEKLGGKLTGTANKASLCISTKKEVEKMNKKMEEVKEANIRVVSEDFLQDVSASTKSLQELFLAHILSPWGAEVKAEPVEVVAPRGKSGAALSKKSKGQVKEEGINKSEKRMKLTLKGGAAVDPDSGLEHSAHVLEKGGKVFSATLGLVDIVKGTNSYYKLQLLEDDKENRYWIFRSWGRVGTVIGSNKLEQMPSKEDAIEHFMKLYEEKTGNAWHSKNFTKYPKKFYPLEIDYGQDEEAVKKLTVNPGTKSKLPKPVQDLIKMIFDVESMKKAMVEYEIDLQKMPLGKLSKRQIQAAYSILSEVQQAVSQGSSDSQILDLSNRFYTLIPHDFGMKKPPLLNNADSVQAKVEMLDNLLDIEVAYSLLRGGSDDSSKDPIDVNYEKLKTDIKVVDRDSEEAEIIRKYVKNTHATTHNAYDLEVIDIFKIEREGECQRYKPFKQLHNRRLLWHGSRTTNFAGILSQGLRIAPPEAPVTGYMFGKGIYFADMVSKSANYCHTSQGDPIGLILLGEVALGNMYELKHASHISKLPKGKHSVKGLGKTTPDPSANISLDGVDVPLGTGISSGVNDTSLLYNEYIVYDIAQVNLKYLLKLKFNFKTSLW
Chain of TNKS2 (Q9H2K2 whole entry): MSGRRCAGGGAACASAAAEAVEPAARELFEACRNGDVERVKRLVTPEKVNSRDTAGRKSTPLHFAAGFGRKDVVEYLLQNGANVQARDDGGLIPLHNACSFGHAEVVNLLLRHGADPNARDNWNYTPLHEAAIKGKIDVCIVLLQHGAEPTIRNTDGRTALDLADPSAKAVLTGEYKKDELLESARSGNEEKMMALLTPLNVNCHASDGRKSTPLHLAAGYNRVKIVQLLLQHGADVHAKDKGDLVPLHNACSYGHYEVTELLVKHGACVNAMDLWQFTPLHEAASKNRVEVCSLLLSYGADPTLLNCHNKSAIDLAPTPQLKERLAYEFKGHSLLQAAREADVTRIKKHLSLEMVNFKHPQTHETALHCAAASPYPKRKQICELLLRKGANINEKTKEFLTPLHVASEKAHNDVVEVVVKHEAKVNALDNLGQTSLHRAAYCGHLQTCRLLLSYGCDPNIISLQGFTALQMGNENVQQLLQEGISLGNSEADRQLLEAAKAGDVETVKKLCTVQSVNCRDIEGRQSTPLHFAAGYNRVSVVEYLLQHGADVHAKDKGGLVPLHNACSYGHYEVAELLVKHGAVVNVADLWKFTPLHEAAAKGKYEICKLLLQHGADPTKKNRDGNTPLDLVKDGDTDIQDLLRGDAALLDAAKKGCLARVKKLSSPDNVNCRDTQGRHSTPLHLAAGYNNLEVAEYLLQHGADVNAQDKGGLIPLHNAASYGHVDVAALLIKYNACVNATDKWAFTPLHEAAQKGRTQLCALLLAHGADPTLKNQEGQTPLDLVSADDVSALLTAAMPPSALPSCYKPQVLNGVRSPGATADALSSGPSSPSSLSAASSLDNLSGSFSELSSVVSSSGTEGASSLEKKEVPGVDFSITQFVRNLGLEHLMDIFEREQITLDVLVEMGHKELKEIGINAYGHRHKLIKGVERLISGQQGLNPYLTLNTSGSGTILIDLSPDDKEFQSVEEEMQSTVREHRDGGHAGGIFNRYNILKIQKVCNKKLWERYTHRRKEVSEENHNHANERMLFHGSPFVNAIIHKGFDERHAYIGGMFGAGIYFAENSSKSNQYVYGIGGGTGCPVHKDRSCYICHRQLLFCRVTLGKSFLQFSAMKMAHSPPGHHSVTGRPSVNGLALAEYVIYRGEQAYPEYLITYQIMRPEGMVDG

Consider `O=C(Nc1cccc2cccnc12)c1ccc(N2C(=O)[C@@H]3[C@H](C2=O)[C@@H]2C=C[C@H]3C2)cc1` [IWR-1], for which, on telomerase, the telomerase activity entry is recorded as “direct inactivation of telomerase by Tnks inhibitors was ruled out”. Besides, in the data set on zebrafish, the “fin regeneration after chemically induced blockade” value is on record as “able to regenerate tissue to nearly normal levels after chemical removal”. For the same compound, the “% inhibition” value on PARP6 was 0%. In addition, on PARP1, the “% inhibition” value came out at 0%. For the same compound, in data set [1], the “Tnks and Axin protein levels” value is “induce stabilization of both Tnks enzymes and Axin proteins”; the β-catenin protein level result is on record as “promote destruction of β-catenin”. Besides, the “specificity for Tnks enzymes over several other PARPs compared to XAV-939” value in the data set with Tnks enzymes is recorded as approximately 100 fold. In the data set on Axin2 in DLD-1 cells, the “expression of Axin2” value was “decrease in the expression of Axin2”. Moreover, in data set [2], the “specificity/selectivity across PARP panel” value is on record as “highly specific”.

On to `CCN(C(=O)C1CCN(S(=O)(=O)c2cc3c(cc2Br)CCN3C(C)=O)CC1)c1cccc(C)c1` [IWR-8], for which the “β-catenin activity induced by loss of APC function” value in data set [3] is on record as “inhibits β-catenin activity induced by loss of APC function”. Also, the inhibition at 10 µM at TNKS1 stood at 99%; at PARP6, 0%; on PARP1 it was 0%; on TNKS2 it was 99%. The “ability to inhibit purified recombinant Tnks1 protein” value in data set [4] is given as “directly target Tnks”. For the same compound, the “specificity/selectivity across PARP panel” value in data set [2] is “highly specific”. Further, in the data set with SW403 cells, the “cell growth in a cancer cell line with compromised APC function” value is “inhibits cell growth”.

In general, % inhibition refers to the relative decrease from the control value, in per cent. One may read the inhibition as the drop in the measured response relative to a control, in per cent.
